For nine molecules, pest or weed control, inhibition of growth and melting point results are on record in patent US20240343717A1, “MICROBIOCIDAL PYRAZOLE DERIVATIVES” (SYNGENTA CROP PROTECTION AG, priority 2021, published 2024).

By melting point is commonly meant the temperature of the solid-liquid transition.

Some results are limits rather than exact numbers.

For data set [1], the system named is Alternaria solani. The experiment in a line: Alternaria solani / tomato / leaf disc (early blight). As to conditions: foliar, tomato leaf disks, sprayed 2 days before inoculation, compared to untreated control. Format: in vivo. The procedure: Example B1: Alternaria solani/Tomato/Leaf Disc (Early Blight) Tomato leaf disks cv. Baby are placed on agar in multiwell plates (24-well format) and sprayed with the formulated test compound diluted in water. The leaf disks are inoculated with a spore suspension of the fungus 2 days after application. The inoculated leaf disks are incubated at 23° C./21° C.

In data set [2] the test system is Botryotinia fuckeliana (Botrytis cinerea). Description: Botryotinia fuckeliana (Botrytis cinerea) / liquid culture (gray mould). Format: cell-based. As to conditions: growth inhibition photometrically 3-4 days after application, read-out: control of Botryotinia fuckeliana. Put shortly:
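Conidia suspended in Vogels broth and added to compound dispensed from DMSO. Incubated at 24°C, with growth inhibition measured photometrically 3–4 days later.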

The subject of data set [3] is Glomerella lagenarium (Colletotrichum lagenarium). Description: Glomerella lagenarium (Colletotrichum lagenarium) / liquid culture (anthracnose). Format: cell-based. To be noted: Colletotrichum orbiculare, growth inhibition photometrically 3-4 days after application, read-out: control of Glomerella lagenarium. The gist of the method:
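Cryo-stored conidia in potato dextrose broth were added to test compound in DMSO. Plates were incubated at 24° C, and growth inhibition was read photometrically 3-4 days after application.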

Data set [4] concerns Blumeria graminis f. sp. tritici (Erysiphe graminis f. sp. tritici). Description: Blumeria graminis f. sp. tritici / wheat / leaf disc preventative (powdery mildew on wheat). To be noted: foliar, wheat leaf segments, inoculated 1 day after application. Format: in vivo. Put shortly: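 Wheat cv. Kanzler leaf segments on agar sprayed with formulated compound in water, inoculated 1 day later by shaking mildew-infected plants overhead. Incubated at 20° C, 60% rh, 24 h dark then 12 h light/12 h dark. Percent disease control versus untreated scored 6-8 days after application.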

Data set [5] relates to Fusarium culmorum. The experiment in a line: microbe, parasite or virus in culture. Format: cell-based. To be noted: read-out: control of Fusarium culmorum.
Data set [6] deals with Fusarium culmorum. Description: whole plant or invertebrate. Format: in vivo. To be noted: in Triticum aestivum, read-out: control of Fusarium culmorum.
The subject of data set [7] is Gibberella zeae (Fusarium graminearum). Description: whole plant or invertebrate. Format: in vivo. To be noted: in Triticum aestivum, read-out: control of Gibberella zeae.
In data set [8] the test system is Phaeosphaeria nodorum (Septoria nodorum). The experiment in a line: Phaeosphaeria nodorum (Septoria nodorum) / wheat / leaf disc preventative (glume blotch). Format: in vivo. To be noted: Parastagonospora nodorum, foliar, wheat leaf segments, inoculated 2 days after application. Put shortly:
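Wheat cv. Kanzler leaf segments on agar sprayed preventatively with formulated compound diluted in water, then inoculated with spore suspension 2 days after application. Incubated at 20° C, 75% rh, 12 h light/12 h dark; percent disease control versus untreated scored 5-7 days after application.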

Data set [9] has as its system Monographella nivalis (Microdochium nivale). The experiment in a line: Monographella nivalis (Microdochium nivale) / liquid culture (foot rot cereals). Format: cell-based. To be noted: growth inhibition photometrically 4-5 days after application, read-out: control of Monographella nivalis. Put shortly:
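Fungal conidia mixed directly into potato dextrose broth and added to test compound delivered in DMSO. Incubated at 24° C; growth inhibition read photometrically 4-5 days after application.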

Data set [10] relates to Mycosphaerella arachidis (Cercospora arachidicola). Description: Mycosphaerella arachidis (Cercospora arachidicola) / liquid culture (early leaf spot). Format: cell-based. As to conditions: growth inhibition photometrically 4-5 days after application, read-out: control of Mycosphaerella arachidis. Put shortly:
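Spores taken straight from cryostorage are suspended in potato dextrose broth and added to test compound in DMSO. Plates are incubated at 24° C. Growth inhibition is scored photometrically 4-5 days after application.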

The subject of data set [11] is Pyrenophora teres. The experiment in a line: Pyrenophora teres / barley / leaf disc preventative (net blotch). Format: in vivo. As to conditions: foliar, barley leaf segments, inoculated 2 days after application. Put shortly:
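Barley cv. Hasso leaf segments on agar sprayed with formulated compound, inoculated with spores 2 days later. Incubated at 20 °C, 65% rh, 12 h light/dark; disease control versus untreated assessed 5–7 days after application.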

In data set [12] the test system is Sclerotinia sclerotiorum. Description: Sclerotinia sclerotiorum / liquid culture (cottony rot). Format: cell-based. As to conditions: growth inhibition photometrically 3-4 days after application, read-out: control of Sclerotinia sclerotiorum. Put shortly: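 Mycelial fragments from fresh liquid culture in potato dextrose broth added to test compound in DMSO. Incubation at 24° C; growth inhibition read photometrically 3-4 days after application.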

Data set [13] relates to Mycosphaerella graminicola (Septoria tritici). The experiment in a line: Mycosphaerella graminicola (Septoria tritici) / liquid culture (Septoria blotch). Format: cell-based. To be noted: Zymoseptoria tritici, growth inhibition photometrically 4-5 days after application, read-out: control of Mycosphaerella graminicola. Put shortly: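 Conidia suspended in potato dextrose broth and added to test compound supplied in DMSO in 96-well plates. Incubated at 24 °C, and growth inhibition read photometrically 4-5 days after application.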

Data set [14] concerns Magnaporthe grisea (Pyricularia Oryzae). Description: whole plant or invertebrate. Format: in vivo. To be noted: foliar, read-out: control of Magnaporthe grisea.

Turning to `Cn1cc([C@](C)(CNC(=O)c2nnc(-c3ccc(F)cc3F)s2)c2cccc(Cl)n2)cn1` [Compound P-35, N-[(2R)-2-(6-chloro-2-pyridyl)-2-(1-methylpyrazol-4-yl)propyl]-5-(2,4-difluorophenyl)-1,3,4-thiadiazole-2-carboxamide], the pest or weed control at 200 ppm in data set [1], in data set [4], in data set [6], in data set [7], in data set [8] and in data set [11] was at least 80% in each case. Besides, the inhibition of growth at 20 ppm in data set [2], in data set [3], in data set [5], in data set [9], in [10] and in data set [12] was at least 80% each time. In addition, the inhibition of growth at 20 ppm in data set [13] was at least 80%.
As for `CC(C)Nc1cccc(C(C)(CNC(=O)c2cc(-c3ccc(F)cc3F)on2)c2cnn(C)c2)n1` (stereo not shown) [Compound P-103, 5-(2,4-difluorophenyl)-N-[2-[6-(isopropylamino)-2-pyridyl]-2-(1-methylpyrazol-4-yl)propyl]isoxazole-3-carboxamide], the inhibition of growth at 20 ppm in [9] and in data set [13] was at least 80% in each case. Further, the pest or weed control at 200 ppm in data set [14] is at least 80%.
In turn, `COc1cc(Cl)nc(C(C)(CNC(=O)c2cc(-c3ccc(F)cc3F)on2)c2cnn(C)c2)c1` (stereo not shown) [Compound P-36, N-[2-(6-chloro-4-methoxy-2-pyridyl)-2-(1-methylpyrazol-4-yl)propyl]-5-(2,4-difluorophenyl) isoxazole-3-carboxamide] returned a melting point of 157 to 159 °C. For the same molecule, the inhibition of growth at 20 ppm in [2] was at least 80%. For the same molecule, the inhibition of growth at 20 ppm in data set [3] is at least 80%. The pest or weed control at 200 ppm in [4] is at least 80%. The inhibition of growth at 20 ppm in data set [5] was at least 80%. In [6], the pest or weed control at 200 ppm is at least 80%. The pest or weed control at 200 ppm in [7] was at least 80%. For the same molecule, in data set [9], the inhibition of growth at 20 ppm is at least 80%. In data set [10], the inhibition of growth at 20 ppm was at least 80%. In data set [11], this molecule registered a pest or weed control at 200 ppm of at least 80%. The inhibition of growth at 20 ppm in data set [13] was at least 80%.
`Cc1cccc(C(C)(CNC(=O)c2cc(-c3ccc(F)cc3F)on2)c2cnn(C)c2Cl)n1` (stereo not shown) [Compound P-73, N-[2-(5-chloro-1-methyl-pyrazol-4-yl)-2-(6-methyl-2-pyridyl)propyl]-5-(2,4-difluorophenyl) isoxazole-3-carboxamide]: the pest or weed control at 200 ppm in data set [1], in [4], in data set [6], in data set [7], in data set [8] and in [11] was at least 80% each time. The inhibition of growth at 20 ppm in [2], in data set [3], in data set [5], in [9], in [10] and in data set [12] was at least 80% throughout. Further, the inhibition of growth at 20 ppm in data set [13] is at least 80%.
Regarding `Cn1cc(C(CNC(=O)c2cc(-c3ccc(F)cc3F)on2)c2cnccn2)cn1` (stereo not shown) [Compound P-8, 5-(2,4-difluorophenyl)-N-[2-(1-methylpyrazol-4-yl)-2-pyrazin-2-yl-ethyl]isoxazole-3-carboxamide], the pest or weed control at 200 ppm in [4], in [14] and in data set [11] was at least 80% in each case.
In the case of `Cn1cc(C(C)(CNC(=O)c2cc(-c3ccc(F)cc3F)on2)c2cccc(C#N)n2)cn1` (stereo not shown) [Compound P-15, N-[2-(6-cyano-2-pyridyl)-2-(1-methylpyrazol-4-yl)propyl]-5-(2,4-difluorophenyl) isoxazole-3-carboxamide], the pest or weed control at 200 ppm in data set [1], in data set [4], in data set [8], in data set [14] and in [11] was at least 80% in each case. Further, the inhibition of growth at 20 ppm in data set [2], in data set [3], in data set [5], in data set [9], in [10] and in [13] was at least 80% in each case.
Regarding `Cn1ncc(C(C)(CNC(=O)c2cc(-c3ccc(F)cc3F)on2)c2cccc(Cl)n2)c1Cl` (stereo not shown) [Compound P-26, N-[2-(5-chloro-1-methyl-pyrazol-4-yl)-2-(6-chloro-2-pyridyl)propyl]-5-(2,4-difluorophenyl) isoxazole-3-carboxamide], the pest or weed control at 200 ppm in data set [1], in data set [4], in data set [7], in data set [8], in data set [14] and in data set [11] was at least 80% throughout. Moreover, the inhibition of growth at 20 ppm in data set [2], in [3], in data set [5], in [9], in data set [10] and in data set [12] was at least 80% throughout. Besides, in data set [13], the inhibition of growth at 20 ppm is at least 80%.
`COC(=O)c1cccc(C(C)(CNC(=O)c2cc(-c3ccc(F)cc3F)on2)c2cnn(C)c2)n1` (stereo not shown) [Compound P-39, methyl 6-[2-[5-(2,4-difluorophenyl)isoxazole-3-carbonyl]amino]-1-methyl-1-(1-methylpyrazol-4-yl)ethyl]pyridine-2-carboxylate]: the inhibition of growth at 20 ppm in data set [2], in [3], in data set [9] and in data set [13] was at least 80% in each case. In addition, the pest or weed control at 200 ppm in data set [8] and in [14] was at least 80% in each case.
As to `Cc1ccc(C(C)(CNC(=O)c2cc(-c3ccc(F)cc3F)on2)c2cnn(C)c2)nc1Br` (stereo not shown) [Compound P-110, N-[2-(6-bromo-5-methyl-2-pyridyl)-2-(1-methylpyrazol-4-yl)propyl]-5-(2,4-difluorophenyl) isoxazole-3-carboxamide], the pest or weed control at 200 ppm in [1], in data set [4], in [8], in data set [14] and in [11] was at least 80% in each case. The inhibition of growth at 20 ppm in data set [2], in data set [3], in data set [5], in [9], in [10] and in [12] was at least 80% each time. Moreover, in data set [13], the inhibition of growth at 20 ppm is at least 80%.
